# From patent publication US11603355B2, “Charged ion channel blockers and methods for use” (Nocion Therapeutics, Inc., priority 2019, dated 2023)
# Where a name gives a salt, the structure may show the parent alone.
# How the values were obtained:
# NaV1.7 [1] = biological target: T1, NaV1.7 (Homo sapiens, UniProt Q15858); experiment: Manual patch clamp, external block of NaV1.7 current; assay type: cell-based; conditions: % inhibition at 10 μM test concentration, compound in external solution, HEK293 cells; for inhibition at 10 µM: read-out: Nav1.7 Extracellular Inhibition
# T1 construct: expressed in transfected cells; host or cells: HEK293 (tetracycline-inducible)
# T1 sequence (Q15858 whole entry): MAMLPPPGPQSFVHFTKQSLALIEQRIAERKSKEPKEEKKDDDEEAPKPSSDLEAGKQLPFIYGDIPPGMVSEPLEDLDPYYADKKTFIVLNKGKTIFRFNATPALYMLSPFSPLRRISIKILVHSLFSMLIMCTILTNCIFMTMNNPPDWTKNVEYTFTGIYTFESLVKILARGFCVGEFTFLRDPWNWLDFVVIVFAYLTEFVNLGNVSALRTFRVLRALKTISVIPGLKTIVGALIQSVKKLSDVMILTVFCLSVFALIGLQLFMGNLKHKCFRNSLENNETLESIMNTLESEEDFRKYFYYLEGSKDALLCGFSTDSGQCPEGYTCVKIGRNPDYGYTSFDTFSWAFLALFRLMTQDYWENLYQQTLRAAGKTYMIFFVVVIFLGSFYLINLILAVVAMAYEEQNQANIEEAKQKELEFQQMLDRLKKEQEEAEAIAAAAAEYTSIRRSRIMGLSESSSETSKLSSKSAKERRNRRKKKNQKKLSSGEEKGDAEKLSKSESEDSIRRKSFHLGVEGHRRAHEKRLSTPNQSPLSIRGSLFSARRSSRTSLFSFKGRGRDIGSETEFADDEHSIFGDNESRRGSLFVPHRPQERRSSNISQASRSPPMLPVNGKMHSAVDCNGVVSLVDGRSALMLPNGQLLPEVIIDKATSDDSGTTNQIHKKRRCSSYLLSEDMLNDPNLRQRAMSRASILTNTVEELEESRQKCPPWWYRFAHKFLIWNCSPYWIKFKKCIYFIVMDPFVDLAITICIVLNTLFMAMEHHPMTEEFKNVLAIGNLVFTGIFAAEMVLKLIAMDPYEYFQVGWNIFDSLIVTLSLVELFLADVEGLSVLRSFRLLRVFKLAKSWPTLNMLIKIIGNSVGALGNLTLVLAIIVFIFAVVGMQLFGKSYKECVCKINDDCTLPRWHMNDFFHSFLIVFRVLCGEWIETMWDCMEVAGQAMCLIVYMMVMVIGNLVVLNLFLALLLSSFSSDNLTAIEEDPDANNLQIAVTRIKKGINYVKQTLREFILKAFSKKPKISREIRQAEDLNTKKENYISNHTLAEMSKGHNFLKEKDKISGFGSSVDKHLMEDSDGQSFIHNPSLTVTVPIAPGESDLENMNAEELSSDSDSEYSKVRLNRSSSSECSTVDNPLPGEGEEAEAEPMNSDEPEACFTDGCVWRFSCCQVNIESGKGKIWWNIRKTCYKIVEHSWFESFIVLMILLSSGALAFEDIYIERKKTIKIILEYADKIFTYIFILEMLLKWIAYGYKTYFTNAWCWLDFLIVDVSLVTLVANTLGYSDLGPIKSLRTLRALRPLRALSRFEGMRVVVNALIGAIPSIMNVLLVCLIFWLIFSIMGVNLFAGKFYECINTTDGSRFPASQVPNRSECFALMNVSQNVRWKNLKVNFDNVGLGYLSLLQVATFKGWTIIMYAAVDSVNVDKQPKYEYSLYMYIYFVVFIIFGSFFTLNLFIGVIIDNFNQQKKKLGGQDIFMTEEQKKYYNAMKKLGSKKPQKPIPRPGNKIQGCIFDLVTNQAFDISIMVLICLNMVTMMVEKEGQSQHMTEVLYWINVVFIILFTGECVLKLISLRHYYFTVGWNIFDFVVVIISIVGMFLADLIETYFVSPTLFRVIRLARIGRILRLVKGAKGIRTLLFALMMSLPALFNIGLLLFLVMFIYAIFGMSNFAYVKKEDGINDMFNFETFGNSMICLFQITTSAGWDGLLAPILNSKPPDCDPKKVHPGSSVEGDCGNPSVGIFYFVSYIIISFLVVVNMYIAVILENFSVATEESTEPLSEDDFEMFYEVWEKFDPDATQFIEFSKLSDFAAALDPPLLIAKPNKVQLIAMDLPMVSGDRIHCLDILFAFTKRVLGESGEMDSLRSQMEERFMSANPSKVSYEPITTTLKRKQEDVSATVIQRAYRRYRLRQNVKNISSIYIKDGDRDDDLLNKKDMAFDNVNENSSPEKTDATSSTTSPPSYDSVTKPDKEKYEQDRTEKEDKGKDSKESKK
# Experimental: Representative compounds of the invention were synthesized according to the described methods and tested for the ability to inhibit voltage-gated sodium channels.
# NaV1.7 was expressed in HEK293 cells upon induction with tetracycline. Cells were cultured in DMEM containing 10% dialyzed Fetal Bovine Serum (VWR, Radnor, Pa.), 1% Glutamax (VWR, Radnor, Pa.), 1% Penicillin-Streptomycin (VWR, Radnor, Pa.), 100 mg/L Hygromycin (Thermo Fisher Scientific, Waltham, Mass. and 5 mg/L Blasticidin (Alfa Aesar, Haverhill, Mass.). Cells were grown and maintained at 37° C. in a humidified environment containing 10% CO2 in air. Cells were detached from the culture flask for passage and harvested using 0.05% Trypsin-EDTA (Thermo Fisher Scientific, Waltham, Mass.). To induce NaV1.7, cells were induced with tetracycline (0.1-1 μg/mL, IBI Scientific, Peosta, Iowa) the day before recording and plated onto 24-well plates. Cells were washed with DPBS (VWR, Radnor, Pa.), trypsinized and then triturated five times in 10 mL of growth media to break apart cell aggregates. For one 24-well plate, 2 mL of cell suspension was mixed with 23 mL of fresh growth media and 0.1-1 μg/mL tetracycline added. 1 ml of mixed media with cells was then added to each well of a 24-well plate, with a 12 mm coverslip already placed in the bottom of the well. Cells were then incubated in 37° C. and 10% CO2 overnight.
# The intracellular solution contained the following (in mM) CsCl 135, NaCl 10, EGTA 10, HEPES 10, MgCl2 2, adjusted to pH 7.2 with CsOH. The external solution was a normal Ringer solution containing (in mM) NaCl 155, HEPES 10, glucose 10, KCl 3.5, CaCl2 1.5, MgCl2 1 adjusted to pH 7.4 with NaOH. CsCl is from Alfa Aesar, Haverhill, Mass. All other chemicals are from Sigma-Aldrich, St. Louis, Mo. In order to test the degree of internal block by test compounds the compounds were dissolved in internal solution at the indicated test concentration. […] In order to test the degree of external block by test compounds the compounds were dissolved in external solution at the indicated test concentration.
# 18-24 hours after cells were induced with tetracycline, coverslips were placed into a chamber filled with Normal Ringer solution at room temperature and the chamber placed on a microscope. Pipettes were pulled from borosilicate glass on a P97 puller (Sutter Instrument, Novato, Calif.) and polished with a MF-830 Microforge (Narishige International USA, Inc., Amityville, N.Y.) to have a resistance of 1.5-2.5 MΩ when filled with CsCl internal solution at room temperature. Healthy cells (those that are round and translucent with no visible blemishes) were chosen for seal formation. A seal was formed between the pipette and the cell, and a brief pulse of suction was used to “break in” and establish the whole-cell configuration. The membrane potential was held at −100 mV before the voltage protocol began. Only cells with series resistance between 1.5-5 MΩ were retained for analysis. The voltage protocol was as follows: Cells were held at −100 mV for 12 ms followed by a hyperpolarizing step to −105 mV for 12 ms to monitor the leak. Cells were then stepped back to −100 mV for 40 ms. Cells were then depolarized to −20 mV for 10 ms and then returned to −100 mV for 26 ms.
# Once the recording was started, the voltage protocol was run at 30 second intervals for 5 minutes to get a stable baseline. This is followed by 5 Hz stimulation of the same voltage protocol run until the end of experiment. […] The test compound is added for 5 minutes before washing out with normal Ringer's solution. Currents were recorded using PatchMaster software with Heka EPC10 (HEKA Electronics, Lambrecht, Germany). Only cells with inward current amplitudes at −20 mV between 400 pA and 4 nA were accepted. In addition, cells having leak currents greater than 10% of their current amplitudes were discarded. […]
# NaV1.7 [2] = biological target: T1, NaV1.7; experiment: Manual patch clamp, internal block of NaV1.7 current; assay type: cell-based; conditions: compound in internal solution, HEK293 cells
# Method in brief: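 Whole-cell recordings at room temperature in tetracycline-induced HEK293 cells, compound in CsCl internal solution (pH 7.2), held at −100 mV with 10 ms steps to −20 mV. Four 30 s 5 Hz trains after 5 min baseline; fraction of peak inward current remaining computed as Itest/Ibaseline.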
# [3] = % inhibition at 3 μM test concentration, read-out: Nav1.7 Intracellular Inhibition
Molecule,inhibition at 10 µM (NaV1.7 [1]) [%],inhibition at 3 µM (NaV1.7 [2]; [3]) [%],"inhibition at 10 µM (NaV1.7 [2]; % inhibition at 10 μM test concentration, read-out: Nav1.7 Intracellular Inhibition) [%]",Nav1.7 Extracellular Inhibition (NaV1.7 [1]),Nav1.7 Intracellular Inhibition (NaV1.7 [2]; % inhibition at 3 μM test concentration)
1-benzyl-1-(2-((2-(dimethylcarbamoyl)-6-methylphenyl) amino)-2-oxoethyl) azepan-1-ium bromide [Compound 81A],–,–,–,+ (“+” (<40%)),+++ (“+++” 90-70%)
"CC[N+](CC)(CCCc1ccccc1)CC(=O)Nc1c(C)cccc1C.[Br-] [Compound 86A, N-(2-((2,6-dimethylphenyl)amino)-2-oxoethyl)-N, N-diethyl-3-phenylpropan-1-aminium bromide]",< 40,> 90,> 95,–,–
"Cc1cccc(C)c1N(C)C(=O)C[N+]1(Cc2ccccc2)CCCCCC1 [Compound 38A, 1-benzyl-1-(2-((2,6-dimethylphenyl) (methyl)amino)-2-oxoethyl) azepan-1-ium formate]",< 40,70 to 90,–,–,–

# Now from value to molecule, other results behind:
inhibition at 10 µM (NaV1.7 [1]) [%],inhibition at 3 µM (NaV1.7 [2]; [3]) [%],"inhibition at 10 µM (NaV1.7 [2]; % inhibition at 10 μM test concentration, read-out: Nav1.7 Intracellular Inhibition) [%]",Molecule,Nav1.7 Extracellular Inhibition (NaV1.7 [1]),Nav1.7 Intracellular Inhibition (NaV1.7 [2]; % inhibition at 3 μM test concentration)
< 40,> 90,–,"Cc1cccc(F)c1NC(=O)C[N+]1(Cc2ccccc2)CCCCCC1.[Br-] [Compound 69A, 1-benzyl-1-(2-((2-fluoro-6-methylphenyl)amino)-2-oxoethyl)azepan-1-ium bromide]",–,–
< 40,70 to 90,–,"Cc1cccc(C)c1NC(=O)C[N+]1(Cc2ccccc2)CCCC(C(N)=O)C1.[Br-] (mixture of isomers) [Compound 53A, 1-benzyl-3-carbamoyl-1-(2-((2,6-dimethylphenyl)amino)-2-oxoethyl) piperidin-1-ium bromide]",–,–
